From ChEMBL document CHEMBL3132744, “Structureactivity relationship studies of miniproteins targeting the androgen receptorcoactivator interaction” (Medchemcomm, 2013) come the findings set out here.

Square brackets hold non-standard residues; d marks the D form. Peptide text beside a SMILES is read from it. Phe(2-Cl) = N[C@@H](Cc1ccccc1Cl)C(=O)O; Cha = N[C@@H](CC1CCCCC1)C(=O)O

For this assay, the target named is T1, Androgen receptor (Homo sapiens, UniProt P10275).
T1 sequence (P10275 whole entry): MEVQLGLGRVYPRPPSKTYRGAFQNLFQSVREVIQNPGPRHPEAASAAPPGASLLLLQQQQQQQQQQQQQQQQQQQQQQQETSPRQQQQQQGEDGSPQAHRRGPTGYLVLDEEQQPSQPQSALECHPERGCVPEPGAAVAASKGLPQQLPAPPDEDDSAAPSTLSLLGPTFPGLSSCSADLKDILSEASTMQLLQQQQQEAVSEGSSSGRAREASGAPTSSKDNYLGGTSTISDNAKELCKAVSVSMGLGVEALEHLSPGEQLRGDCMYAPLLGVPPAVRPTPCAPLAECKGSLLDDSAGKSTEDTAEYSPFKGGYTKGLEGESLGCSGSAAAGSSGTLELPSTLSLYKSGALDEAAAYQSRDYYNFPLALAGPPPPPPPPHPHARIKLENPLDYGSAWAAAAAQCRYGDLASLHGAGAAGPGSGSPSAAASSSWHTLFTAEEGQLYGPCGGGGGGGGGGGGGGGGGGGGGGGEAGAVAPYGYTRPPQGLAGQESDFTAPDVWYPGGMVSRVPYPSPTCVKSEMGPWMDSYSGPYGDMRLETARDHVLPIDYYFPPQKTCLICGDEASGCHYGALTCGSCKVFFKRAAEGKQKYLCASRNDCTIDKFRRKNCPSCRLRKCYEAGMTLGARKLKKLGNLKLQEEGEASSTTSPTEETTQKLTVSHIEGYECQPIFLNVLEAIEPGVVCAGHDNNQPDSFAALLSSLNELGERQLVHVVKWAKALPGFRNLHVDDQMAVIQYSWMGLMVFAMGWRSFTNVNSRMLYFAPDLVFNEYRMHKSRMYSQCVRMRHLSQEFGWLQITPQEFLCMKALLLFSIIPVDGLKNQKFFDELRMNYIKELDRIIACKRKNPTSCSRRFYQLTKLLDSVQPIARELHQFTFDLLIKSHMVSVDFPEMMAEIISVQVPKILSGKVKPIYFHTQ
As to the kind of experiment: Displacement of fluorescein-CSSRFESLFAGEKESR from human androgen receptor-LBD after 1 hr by fluorescence polarization assay.
As to `CC(C)C[C@H](NC(=O)[C@H](CS)NC(=O)[C@H](Cc1cnc[nH]1)NC(=O)[C@H](Cc1ccccc1)NC(=O)[C@H](Cc1ccc(O)cc1)NC(=O)[C@H](CS)NC(=O)[C@H](C)N)C(=O)N[C@@H](Cc1ccccc1)C(=O)N[C@@H](CCC(=O)O)C(=O)NCC(=O)N[C@@H](CC(N)=O)C(=O)N[C@@H](CC(=O)O)C(=O)N[C@@H](CCC(=O)O)C(=O)N[C@@H](CCC(=O)O)C(=O)N[C@H](C(=O)N[C@@H](CS)C(=O)N[C@@H](CCCCN)C(=O)N[C@@H](CCC(=O)O)C(=O)N[C@@H](Cc1c[nH]c2ccccc12)C(=O)N[C@@H](CS)C(=O)O)[C@@H](C)O` (H-ACYFHCLFEGNDEETCKEWC-OH), the affinity, expressed as Ki, was 7 µM.
With `CC[C@H](C)[C@H](NC(=O)[C@H](CS)NC(=O)[C@H](Cc1ccccc1)NC(=O)[C@H](CC(C)C)NC(=O)[C@H](CCC(=O)O)NC(=O)[C@H](CS)NC(=O)[C@H](Cc1ccccc1Cl)NC(=O)[C@H](CCCNC(=N)N)NC(=O)[C@@H](N)CC(N)=O)C(=O)N[C@@H](CCC(N)=O)C(=O)NCC(=O)N[C@H](C(=O)NCC(=O)N[C@@H](CC(=O)O)C(=O)N[C@H](C(=O)N[C@@H](CCCCN)C(=O)N[C@@H](C)C(=O)N[C@@H](CS)C(=O)N[C@@H](CCC(=O)O)C(=O)N[C@@H](Cc1c[nH]c2ccccc12)C(=O)N[C@@H](C)C(=O)N[C@@H](CS)C(=O)N[C@@H](CCC(N)=O)C(=O)O)C(C)C)[C@@H](C)O` (H-NR[Phe(2-Cl)]CELFCIQGTGDVKACEWACQ-OH) the figure was 2.2 µM; with `CC(C)C[C@H](NC(=O)[C@H](CS)NC(=O)[C@H](CC(N)=O)NC(=O)[C@H](Cc1ccccc1)NC(=O)[C@H](Cc1ccc(O)cc1)NC(=O)[C@H](CS)NC(=O)[C@H](C)N)C(=O)N[C@@H](Cc1ccccc1Cl)C(=O)N[C@@H](CCC(=O)O)C(=O)NCC(=O)N[C@@H](CC(N)=O)C(=O)N[C@@H](CC(=O)O)C(=O)N[C@@H](CCC(=O)O)C(=O)N[C@@H](CCC(=O)O)C(=O)N[C@H](C(=O)N[C@@H](CS)C(=O)N[C@@H](CCCCN)C(=O)N[C@@H](CCC(=O)O)C(=O)N[C@@H](Cc1c[nH]c2ccccc12)C(=O)N[C@@H](CS)C(=O)O)[C@@H](C)O` (H-ACYFNCL[Phe(2-Cl)]EGNDEETCKEWC-OH), 3 µM.
To `CC(C)C[C@H](NC(=O)[C@H](CCC(=O)O)NC(=O)[C@H](CS)NC(=O)[C@H](Cc1ccccc1)NC(=O)[C@H](CCCNC(=N)N)NC(=O)[C@@H](N)CC(N)=O)C(=O)N[C@@H](Cc1ccccc1)C(=O)N[C@@H](CS)C(=O)N[C@@H](Cc1ccccc1)C(=O)N[C@@H](CCC(N)=O)C(=O)NCC(=O)N[C@H](C(=O)NCC(=O)N[C@@H](CC(=O)O)C(=O)N[C@H](C(=O)N[C@@H](CCCCN)C(=O)N[C@@H](C)C(=O)N[C@@H](CS)C(=O)N[C@@H](CCC(=O)O)C(=O)N[C@@H](Cc1c[nH]c2ccccc12)C(=O)N[C@@H](C)C(=O)N[C@@H](CS)C(=O)N[C@@H](CCC(N)=O)C(=O)O)C(C)C)[C@@H](C)O` (H-NRFCELFCFQGTGDVKACEWACQ-OH) belongs 3.6 µM; to `CC(C)C[C@H](NC(=O)[C@H](CS)NC(=O)[C@H](CC(N)=O)NC(=O)[C@H](Cc1ccccc1)NC(=O)[C@H](CCCNC(=N)N)NC(=O)[C@H](CS)NC(=O)[C@H](C)N)C(=O)N[C@@H](Cc1ccccc1)C(=O)N[C@@H](CCC(=O)O)C(=O)NCC(=O)N[C@@H](CC(N)=O)C(=O)N[C@@H](CC(=O)O)C(=O)N[C@@H](CCC(=O)O)C(=O)N[C@@H](CCC(=O)O)C(=O)N[C@H](C(=O)N[C@@H](CS)C(=O)N[C@@H](CCCCN)C(=O)N[C@@H](CCC(=O)O)C(=O)N[C@@H](Cc1c[nH]c2ccccc12)C(=O)N[C@@H](CS)C(=O)O)[C@@H](C)O` (H-ACRFNCLFEGNDEETCKEWC-OH), 12 µM.
`CC(C)C[C@H](NC(=O)[C@H](CS)NC(=O)[C@H](C)N)C(=O)N[C@@H](Cc1ccccc1)C(=O)N[C@@H](CC(N)=O)C(=O)N[C@@H](CS)C(=O)N[C@@H](CC(C)C)C(=O)N[C@@H](Cc1ccccc1)C(=O)N[C@@H](CCC(=O)O)C(=O)NCC(=O)N[C@@H](CC(N)=O)C(=O)N[C@@H](CC(=O)O)C(=O)N[C@@H](CCC(=O)O)C(=O)N[C@@H](CCC(=O)O)C(=O)N[C@H](C(=O)N[C@@H](CS)C(=O)N[C@@H](CCCCN)C(=O)N[C@@H](CCC(=O)O)C(=O)N[C@@H](Cc1c[nH]c2ccccc12)C(=O)N[C@@H](CS)C(=O)O)[C@@H](C)O` (H-ACLFNCLFEGNDEETCKEWC-OH) gave an inhibitory constant (Ki) of 3 µM.
With `CC[C@H](C)[C@H](NC(=O)[C@H](CS)NC(=O)[C@H](Cc1ccccc1)NC(=O)[C@H](CC(C)C)NC(=O)[C@H](CCC(=O)O)NC(=O)[C@H](CS)NC(=O)[C@H](Cc1ccccc1)NC(=O)[C@H](CC(C)C)NC(=O)[C@@H](N)CC(N)=O)C(=O)N[C@@H](CCC(N)=O)C(=O)NCC(=O)N[C@H](C(=O)NCC(=O)N[C@@H](CC(=O)O)C(=O)N[C@H](C(=O)N[C@@H](CCCCN)C(=O)N[C@@H](C)C(=O)N[C@@H](CS)C(=O)N[C@@H](CCC(=O)O)C(=O)N[C@@H](Cc1c[nH]c2ccccc12)C(=O)N[C@@H](C)C(=O)N[C@@H](CS)C(=O)N[C@@H](CCC(N)=O)C(=O)O)C(C)C)[C@@H](C)O` (H-NLFCELFCIQGTGDVKACEWACQ-OH) the figure was 10 µM.
With `CC[C@H](C)[C@H](NC(=O)[C@H](CS)NC(=O)[C@H](Cc1ccccc1)NC(=O)[C@H](CC(C)C)NC(=O)[C@H](CCC(=O)O)NC(=O)[C@H](CS)NC(=O)[C@H](Cc1ccccc1)NC(=O)[C@H](CCCNC(=N)N)NC(=O)[C@@H](N)CO)C(=O)N[C@@H](CCC(N)=O)C(=O)NCC(=O)N[C@H](C(=O)NCC(=O)N[C@@H](CC(=O)O)C(=O)N[C@H](C(=O)N[C@@H](CCCCN)C(=O)N[C@@H](C)C(=O)N[C@@H](CS)C(=O)N[C@@H](CCC(=O)O)C(=O)N[C@@H](Cc1c[nH]c2ccccc12)C(=O)N[C@@H](C)C(=O)N[C@@H](CS)C(=O)N[C@@H](CCC(N)=O)C(=O)O)C(C)C)[C@@H](C)O` (H-SRFCELFCIQGTGDVKACEWACQ-OH) the figure was 2.5 µM; with `CC(C)C[C@H](NC(=O)[C@H](CS)NC(=O)[C@H](CC(N)=O)NC(=O)[C@H](Cc1ccccc1)NC(=O)[C@H](Cc1ccc(O)cc1)NC(=O)[C@H](CS)NC(=O)[C@H](C)N)C(=O)N[C@@H](Cc1ccccc1)C(=O)N[C@@H](CCC(=O)O)C(=O)NCC(=O)N[C@@H](CC(N)=O)C(=O)N[C@@H](CC(=O)O)C(=O)N[C@@H](CCC(=O)O)C(=O)N[C@@H](CCC(=O)O)C(=O)N[C@H](C(=O)N[C@@H](CS)C(=O)N[C@@H](CCCCN)C(=O)N[C@@H](CCC(=O)O)C(=O)N[C@@H](Cc1c[nH]c2ccccc12)C(=O)N[C@@H](CS)C(=O)O)[C@@H](C)O` (H-ACYFNCLFEGNDEETCKEWC-OH), 1.7 µM; with `CC[C@H](C)[C@H](NC(=O)[C@H](CS)NC(=O)[C@H](Cc1ccccc1)NC(=O)[C@H](CC(C)C)NC(=O)[C@H](CCC(=O)O)NC(=O)[C@H](CS)NC(=O)[C@H](CC1CCCCC1)NC(=O)[C@H](CCCNC(=N)N)NC(=O)[C@@H](N)CC(N)=O)C(=O)N[C@@H](CCC(N)=O)C(=O)NCC(=O)N[C@H](C(=O)NCC(=O)N[C@@H](CC(=O)O)C(=O)N[C@H](C(=O)N[C@@H](CCCCN)C(=O)N[C@@H](C)C(=O)N[C@@H](CS)C(=O)N[C@@H](CCC(=O)O)C(=O)N[C@@H](Cc1c[nH]c2ccccc12)C(=O)N[C@@H](C)C(=O)N[C@@H](CS)C(=O)N[C@@H](CCC(N)=O)C(=O)O)C(C)C)[C@@H](C)O` (H-NR[Cha]CELFCIQGTGDVKACEWACQ-OH), 11 µM.
To `CC[C@H](C)[C@H](NC(=O)[C@H](CS)NC(=O)[C@H](Cc1ccccc1Cl)NC(=O)[C@H](CC(C)C)NC(=O)[C@H](CCC(=O)O)NC(=O)[C@H](CS)NC(=O)[C@H](Cc1ccccc1)NC(=O)[C@H](CCCNC(=N)N)NC(=O)[C@@H](N)CC(N)=O)C(=O)N[C@@H](CCC(N)=O)C(=O)NCC(=O)N[C@H](C(=O)NCC(=O)N[C@@H](CC(=O)O)C(=O)N[C@H](C(=O)N[C@@H](CCCCN)C(=O)N[C@@H](C)C(=O)N[C@@H](CS)C(=O)N[C@@H](CCC(=O)O)C(=O)N[C@@H](Cc1c[nH]c2ccccc12)C(=O)N[C@@H](C)C(=O)N[C@@H](CS)C(=O)N[C@@H](CCC(N)=O)C(=O)O)C(C)C)[C@@H](C)O` (H-NRFCEL[Phe(2-Cl)]CIQGTGDVKACEWACQ-OH) belongs 0.4 µM.
As to `CC(C)C[C@H](NC(=O)[C@H](CC(C)C)NC(=O)[C@H](CS)NC(=O)[C@H](CC(N)=O)NC(=O)[C@H](CC(C)C)NC(=O)[C@H](Cc1ccc(O)cc1)NC(=O)[C@H](CS)NC(=O)[C@H](C)N)C(=O)N[C@@H](CCC(=O)O)C(=O)NCC(=O)N[C@@H](CC(N)=O)C(=O)N[C@@H](CC(=O)O)C(=O)N[C@@H](CCC(=O)O)C(=O)N[C@@H](CCC(=O)O)C(=O)N[C@H](C(=O)N[C@@H](CS)C(=O)N[C@@H](CCCCN)C(=O)N[C@@H](CCC(=O)O)C(=O)N[C@@H](Cc1c[nH]c2ccccc12)C(=O)N[C@@H](CS)C(=O)O)[C@@H](C)O` (H-ACYLNCLLEGNDEETCKEWC-OH), the Ki came out at 1.4 µM.
